Test results as given in patent US10709784B2, “Metal chelating compositions and methods for controlling the growth or activities of a living cell or organism” (CHELATION PARTNERS INCORPORATED, priority 2011, dated 2020).
≈ marks a conversion by molar mass, not a printed value. Like-named read-outs stand apart in the source and are kept apart here.

Legend:
Format in all cases: cell-based
[1] = test system: Candida albicans ATCC 10231; assay: Growth with chelating materials of different molecular weight, 84 hours; conditions: 30° C., defined medium without added iron, FIG. 8
Procedure: Candida albicans ATCC 10231 was tested for its sensitivities to: the medical chelator deferiprone (#1 in the graph of FIG. 8) (a product of Apotex Pharmaceuticals); the precursor chemicals used for the preparation of soluble chelating compositions of the present invention, including 3-hydroxy-2-methyl-4-pyrone (#2 in the graph of FIG. 8), AHMP as from Example 1 (#3 in the graph of FIG. 8) and MAHMP as from Example 2 (#4 in the graph of FIG. 8) and also the soluble chelating composition as from Example 4 (#5 in the graph of FIG. 8). The yeast was grown in defined medium as for Example 18 with no additional added iron (i.e., the only but adequate Fe available for the yeast was contributed from being present along with the other added medium components). Growth of the yeast in the defined media with added test chelating materials was compared to control samples that had not received any of the chelating materials following 84 hours of incubation and growth at 30° C. […] These chelators being internalized by the yeast were incapable of restricting iron supply to the yeast cells. […] Thus, low molecular weight chelators such as deferiprone and similar compounds permitted growth while the soluble chelating composition that contained functional groups similar to deferiprone but was a molecular weight higher than 1500 Daltons restricted growth, eventhough the various compounds tested were each capable of binding iron through their pyridinone functionality.

[2] = test system: Staphylococcus aureus ATCC #29213; assay: Antibiotic MIC in untreated versus iron-extracted RPMI
[3] = test system: Escherichia coli ATCC #25922; assay: as above
From the text: (§1) Test microorganisms included Pseudomonas aeruginosa strain PA01, Escherichia coli ATCC #25922 and Staphylococcus aureus ATCC #29213.

[4] = test system: Pseudomonas aeruginosa strain PA01; assay: as above
From the text: as §1

[5] = test system: Candida albicans ATCC 10231; assay: Fluorocytosine MIC (80% growth inhibition) with soluble chelator
Procedure: Candida albicans ATCC 10231, yeast cells, as grown in defined medium with no additional added Fe as in example 18 and example 19, were tested in the same media for their sensitivities to 5-fluorocytosine, as a proto-typical example of the class of […] that are commonly used to control fungal and cancer cell growth in humans and with fluorocytosine plus the soluble chelating composition, as prepared in example 4.

[6] = test system: antibiotic resistant strains of Staphylococcus aureus; assay: NCCLS MIC antibiotic sensitivity with added chelator; conditions: for MIC penicillin: Strain WBG8701
Procedure: Sensitive or antibiotic resistant strains of Staphylococcus aureus (S. aureus) were grown on blood agar plates overnight at 37° C. Four to six individual colonies of each strain were harvested into Mueller-Hinton broth (MHB) and incubated at 37° C. until they reached an optical density equal to or exceeding a 0.5 McFarland standard. The culture was diluted with MHB to equal 0.5 McFarland standard. Dilutions (10^−1) of these standards were used for inocula. Various stains of antibiotic resistant Staphylococcus aureus were used for these tests as shown in the results below. It should be appreciated that growing the bacterial strains on blood agar and then in MHB ensured the inoculum was not restricted for iron prior to the test but rather the bacterial cells were with ample endogenous iron supply.
A range of two-fold dilutions of a test antibiotic was prepared in MHB. […] Soluble and insoluble chelating compositions, as prepared in Example 6 or Example 5, or the free iron chelating agent deferiprone were added to the antibiotic containing tubes at known concentrations of iron binding capacity (referred to as iron binding equivalents) to allow direct comparison of the different compositions or free chelator. The final volume per tube was 500 μl. Bacterial inoculum, 25 μl of the 10^−1 dilutions of the appropriate S. aureus strain was added to each tube. The tubes were incubated at an angle on a reciprocating shaker at 37° C. overnight and results were scored as growth based on turbidity or no growth (lack of turbidity). The Minimum Inhibitory Concentration (MIC) for the antibiotic was determined from the growth results.
A series of tests was set up as in Example 15 with various antibiotic anti-cellular agents. The clinically isolated strains were obtained from the culture collection of Warren Grubb, Curtin University, Perth, Australia.
A series of antibiotic sensitivity tests was set up as in example 16 utilizing the soluble chelating compositions as prepared in Example 6. Separate test series with different clinically isolated Staphylococcus aureus strains, as obtained from the culture collection of Warren Grubb, Curtin University, Perth, Australia, and various antibiotics were employed but for each series a control test comprising addition of iron sufficient to supply two times the chelating capacity of the supplied chelating composition was also included.

[7] = test system: Candida albicans ATCC 10231; assay: Nystatin MIC (80% growth inhibition) with soluble chelator
Procedure: Candida albicans ATCC 10231, yeast cells, as grown in defined medium with no additional added Fe as in example 18 and example 19, were tested in the same media for their sensitivities to nystatin, an antifungal agent as proto-typical of the class of polyene antibiotics that are commonly used to control fungal growth and pathogenesis in humans and with nystatin plus the soluble chelating composition, as prepared in example 4. Nystatin as typical of the polyene class of antifungal agents causes membrane damage as part of its mechanism of anti-fungal activity.

[8] = test system: Candida albicans ATCC 10231; assay: Preservative agent MIC (80% inhibition) challenge test with soluble chelator
[9] = Staphylococcus aureus, ATCC29213, Treated RPMI + 0.004 μM Fe, read-out: MIC
[10] = Staphylococcus aureus, ATCC29213, Untreated RPMI 0.11 μM Fe, read-out: MIC
[11] = Escherichia coli, ATCC25922, Treated RPMI + 0.009 μM Fe, read-out: MIC
[12] = Escherichia coli, ATCC25922, Untreated RPMI 0.11 μM Fe, read-out: MIC
[13] = Pseudomonas aeruginosa, PA01, Treated RPMI + 0.09 μM Fe, read-out: MIC
[14] = Pseudomonas aeruginosa, PA01, Untreated RPMI 0.11 μM Fe, read-out: MIC
[15] = strain WBG525, No Chelator Added (control)
[16] = strain WBG525, plus Soluble Chelating Composition (Example 6) 1.1 mM Fe binding equivalents, * slight growth <5% of control
[17] = strain WBG525, plus Soluble Chelating Composition (Example 6) 2.2 mM Fe binding equivalents, * slight growth <5% of control
[18] = strain WBG4340, No Chelator Added (control)

Molecule: Cc1occc(=O)c1O [3-hydroxy-2-methyl-4-pyrone]
- growth of the yeast compared to control [1]: did not substantially restrict growth

Molecule: Cc1c(O)c(=O)ccn1CCN [AHMP, 1-aminoethyl-3-hydroxy-2-methyl-4(1H)-pyridinone]
- growth of the yeast compared to control [1]: did not substantially restrict growth

Molecule: CC1(C)S[C@@H]2[C@H](NC(=O)[C@H](N)c3ccccc3)C(=O)N2[C@H]1C(=O)O [Ampicillin]
- MIC [2, 9]: 0.25 µg/mL
- MIC [2, 10]: 1 µg/mL (≈ 2.86 µM)
- MIC [3, 11]: 4 µg/mL
- MIC [3, 12]: 4 µg/mL (≈ 11.4 µM)
- MIC [4, 13]: > 512 µg/mL
- MIC [4, 14]: > 512 µg/mL

Molecule: O=C(O)c1cn(C2CC2)c2cc(N3CCNCC3)c(F)cc2c1=O [Ciprofloxacin]
- MIC [2, 9]: 0.25 µg/mL
- MIC [2, 10]: 0.5 µg/mL (≈ 1.51 µM)
- MIC [3, 11]: 0.008 µg/mL
- MIC [3, 12]: 0.0078 µg/mL (≈ 0.0235 µM)
- MIC [4, 13]: 1 µg/mL
- MIC [4, 14]: 4 µg/mL (≈ 12.1 µM)

Molecule: CC[C@H]1OC(=O)[C@H](C)[C@@H](O[C@H]2C[C@@](C)(OC)[C@@H](O)[C@H](C)O2)[C@H](C)[C@@H](O[C@@H]2O[C@H](C)C[C@H](N(C)C)[C@H]2O)[C@](C)(OC)C[C@@H](C)C(=O)[C@H](C)[C@@H](O)[C@]1(C)O [Clarithromycin]
- MIC [2, 10]: 1 µg/mL (≈ 1.34 µM)
- MIC [3, 11]: 16 µg/mL
- MIC [3, 12]: > 512 µg/mL
- MIC [4, 13]: > 512 µg/mL
- MIC [4, 14]: > 512 µg/mL

Molecule: Nc1nc(=O)[nH]cc1F [Fluorocytosine, 5-fluorocytosine]
- MIC ([5]; ATCC10231, 96 h, Fluorocytosine alone, 4 d): 0.025 µg/mL (≈ 0.194 µM)
- MIC ([5]; ATCC10231, 96 h, plus 25 μg/ml soluble chelator (example 4), 4 d): < 0.003 µg/mL
- MIC ([5]; ATCC10231, 240 h, Fluorocytosine alone, 10 d): 0.05 µg/mL (≈ 0.387 µM)
- MIC ([5]; ATCC10231, 240 h, plus 25 μg/ml soluble chelator (example 4), 10 d): 0.012 µg/mL
- MIC ([5]; ATCC10231, 504 h, Fluorocytosine alone, 21 d): 0.05 µg/mL (≈ 0.387 µM)
- MIC ([5]; ATCC10231, 504 h, plus 25 μg/ml soluble chelator (example 4), 21 d): 0.012 µg/mL

Molecule: CC(=O)O[C@H]1C[C@@]2(C)[C@@H](C[C@@H](O)[C@H]3[C@@]4(C)CC[C@@H](O)[C@@H](C)[C@@H]4CC[C@@]32C)/C1=C(\CCC=C(C)C)C(=O)O [Fusidic acid]
- MIC [2, 9]: 0.0625 µg/mL
- MIC [2, 10]: 0.25 µg/mL (≈ 0.484 µM)
- MIC [3, 11]: > 512 µg/mL
- MIC [3, 12]: > 512 µg/mL
- MIC [4, 13]: > 512 µg/mL
- MIC [4, 14]: > 512 µg/mL

Molecule: NC[C@H]1O[C@H](O[C@H]2[C@H](O)[C@@H](O[C@H]3O[C@H](CO)[C@@H](O)[C@H](N)[C@H]3O)[C@H](N)C[C@@H]2N)[C@H](O)[C@@H](O)[C@@H]1O [Kanamycin]
- MIC (100% inhibition) antibiotic [6, 15]: 320 µg/mL (≈ 660 µM)
- MIC (100% inhibition) antibiotic [6, 16]: 20 µg/mL
- MIC (100% inhibition) antibiotic [6, 17]: 20 µg/mL

Molecule: C=C(C)C(=O)NCCn1ccc(=O)c(O)c1C [MAHMP, 3-hydroxy-1-(β-methacrylamidoethyl)-2-methyl-4(1H)-pyridinone]
- growth of the yeast compared to control [1]: did not substantially restrict growth

Molecule: C/C(=C\C(=O)OCCCCCCCCC(=O)O)C[C@@H]1OC[C@H](C[C@@H]2O[C@H]2[C@@H](C)[C@H](C)O)[C@@H](O)[C@H]1O [Mupirocin]
- MIC [2, 9]: 0.0156 µg/mL
- MIC [2, 10]: 0.0625 µg/mL (≈ 0.125 µM)
- MIC [3, 11]: 64 µg/mL
- MIC [3, 12]: 128 µg/mL (≈ 256 µM)
- MIC [4, 13]: > 512 µg/mL
- MIC [4, 14]: > 512 µg/mL

Molecule: C[C@@H]1[C@H](O)[C@@H](C)/C=C/C=C/CC/C=C/C=C/C=C/C=C/C(O[C@H]2O[C@H](C)[C@@H](O)[C@H](N)[C@@H]2O)CC2O[C@](O)(CC(O)C(O)CCC(O)CC(O)CC(O)CC(=O)O[C@H]1C)CC(O)C2C(=O)O (stereo partly drawn) [Nystatin]
- Nystatin MIC ([7]; Nystatin alone, 4 d): 0.23 µg/mL
- Nystatin MIC ([7]; Nystatin alone, 10 d): 3.8 µg/mL
- Nystatin MIC ([7]; Nystatin alone, 21 d): 7.5 µg/mL
- Nystatin MIC ([7]; plus 25 μg/ml soluble chelator (example 4), 4 d): <0.12 µg/mL
- Nystatin MIC ([7]; plus 25 μg/ml soluble chelator (example 4), 10 d): 0.12 µg/mL
- Nystatin MIC ([7]; plus 25 μg/ml soluble chelator (example 4), 21 d): 0.47 µg/mL

Molecule: COC(=O)c1ccc(O)cc1 [Paraben, methyl paraben]
- MIC ([8]; ATCC10231, 48 h, read-out: Sorbate or Paraben MIC, preservative alone, 2 days): 500 µg/mL (≈ 3290 µM)
- MIC ([8]; ATCC10231, 240 h, read-out: Sorbate or Paraben MIC, preservative alone, 10 days): 1000 µg/mL (≈ 6570 µM)

Molecule: [H]/N=C(/N)N[C@H]1[C@H](O)[C@@H](O)[C@H](O[C@@H]2O[C@@H](C)[C@](O)(C=O)[C@H]2O[C@@H]2O[C@@H](CO)[C@H](O)[C@@H](O)[C@@H]2NC)[C@@H](N/C(N)=N\[H])[C@@H]1O [Streptomycin]
- MIC ([6]; Staphylococcus aureus, strain WBG525, no chelator added (control), read-out: MIC Streptomycin): > 640 µg/mL
- MIC (100% inhibition) antibiotic [6, 15]: >640 µg/mL
- MIC (100% inhibition) antibiotic [6, 16]: 640* μg/ml
- MIC (100% inhibition) antibiotic [6, 17]: 160* μg/ml

Molecule: CN(C)[C@@H]1C(O)=C(C(N)=O)C(=O)[C@@]2(O)C(O)=C3C(=O)c4c(O)cccc4[C@@](C)(O)[C@H]3C[C@@H]12 [Tetracycline]
- MIC (100% inhibition) antibiotic [6, 18]: 40 µg/mL (≈ 90 µM)

Molecule: Gentamcin
- MIC (100% inhibition) antibiotic ([6]; strain WBG1320, No Chelator Added (control), * slight growth <5% of control): 320* μg/ml
- MIC (100% inhibition) antibiotic ([6]; strain WBG1320, plus Soluble Chelating Composition (Example 6) 1.1 mM, * slight growth <5% of control): 40* μg/ml
- MIC (100% inhibition) antibiotic ([6]; strain WBG1320, plus Soluble Chelating Composition (Example 6) 2.2 mM, * slight growth <5% of control): 20* μg/ml

Molecule: Neomycin
- MIC ([2]; Treated RPMI + 0.004 μM Fe): 1 µg/mL
- MIC ([2]; Untreated RPMI 0.11 μM Fe): 1 µg/mL
- MIC (100% inhibition) antibiotic [6, 18]: 1280 µg/mL
- MIC (100% inhibition) antibiotic ([6]; strain WBG4340, plus Soluble Chelating Composition (Example 6) 1.1 mM): 160 µg/mL
- MIC (100% inhibition) antibiotic ([6]; strain WBG4340, plus Soluble Chelating Composition (Example 6) 2.2 mM): 80 µg/mL
- MIC ([3]; Treated RPMI + 0.009 μM Fe): 2 µg/mL
- MIC ([3]; Untreated RPMI 0.11 μM Fe): 2 µg/mL
- MIC ([4]; Treated RPMI + 0.09 μM Fe): 16 µg/mL
- MIC ([4]; Untreated RPMI 0.11 μM Fe): 32 µg/mL

Molecule: penicillin
- MIC penicillin ([6]; no chelator): 640 µg/mL
- MIC penicillin ([6]; plus 4.4 mM Fe binding equivalents soluble chelating composition (example 6)): 320 µg/mL
- MIC penicillin ([6]; plus iron-loaded chelating composition): did not lower the MIC
